Tested on: subjects with moderately to severely active RA who have an inadequate response to methotrexate (MTX)
Test: Study 1 (add-on to MTX) - Alanine Aminotransferase (ALT) levels
Format: in vivo, human
Description: Double-blind, placebo-controlled add on study in subjects with moderately to severely active RA who have an inadequate response to methotrexate (MTX) (oral or parenteral).
595 subjects randomized to one of 6 dose regimens of Compound 1 (dosed as [Compound 1:HCl:3H2O]) (3 dose levels administered either once or twice daily) or placebo on top of each subject's stable dose of MTX.
Compound 1 (dosed as [Compound 1:HCl:3H2O]) is dosed for twelve weeks once daily (q.d.) (50 mg, 100 mg or 200 mg) or twice daily (b.i.d.) (25 mg, 50 mg or 100 mg); or placebo.
At Week 12, the subjects on placebo who have not achieved 20% improvement in swollen joint count (SJC66) and tender joint count (TJC68) are re-randomized automatically to receive Compound 1 (dosed as a [Compound 1:HCl:3H2O]) either at 100 mg q.d. or 50 mg b.i.d. doses in a blinded fashion; subjects on 50 mg q.d. who have not achieved 20% improvement in SJC66 and TJC68 will be assigned to 100 mg q.d. and subjects on 25 mg b.i.d. that have not achieved a 20% improvement in SJC66 and TJC68 will be assigned to 50 mg b.i.d. Subjects who switch treatment at week 12 are handled as if they discontinued at week 12 for the purpose of statistical analysis, whereas subjects in the other groups will maintain their randomized treatment until Week 24.
ALT levels determination is available at Quest Diagnostics, Clinical Trials, Quest House, 125-135 Staines Road, Hounslow, Middlesex, TW3 3JB, United Kingdom under Catalogue n#84460.
ALT catalyzes the exchange of the amino group of alanine with the oxogroup of 2-ketoglutarate to form pyruvate and glutamate. In the presence of lactic dehydrogenase, pyruvate reacts with NADH to form NAD+, measured spectrophotometrically. Guidelines for the ALT value have been issued by the association for Clinical Biochemistry and Laboratory Medicine, 130-132 Tooley Street LONDON SE1 2TU, united Kingdom, wherein the ALT value should be below 34 U/l in Female and below 52 U/L in male.

[1] = 12 weeks results, 2 × 100 mg b.i.d., week 1
[2] = 12 weeks results, 2 × 100 mg b.i.d., week 2
[3] = 12 weeks results, 2 × 100 mg b.i.d., week 4
[4] = 12 weeks results, 2 × 100 mg b.i.d., week 8
[5] = 12 weeks results, 2 × 100 mg b.i.d., week 12
[6] = 24 weeks results, continued 25 mg b.i.d., week 1
[7] = 24 weeks results, continued 25 mg b.i.d., week 2
[8] = 24 weeks results, continued 25 mg b.i.d., week 4
[9] = 24 weeks results, continued 25 mg b.i.d., week 8
[10] = 24 weeks results, continued 25 mg b.i.d., week 12
[11] = 24 weeks results, continued 25 mg b.i.d., week 16
[12] = 24 weeks results, continued 25 mg b.i.d., week 20
[13] = 24 weeks results, continued 25 mg b.i.d., week 24
[14] = 24 weeks results, continued 50 mg b.i.d., week 1
[15] = 24 weeks results, continued 50 mg b.i.d., week 2
[16] = 24 weeks results, continued 50 mg b.i.d., week 4
[17] = 24 weeks results, continued 50 mg b.i.d., week 8
[18] = 24 weeks results, continued 50 mg b.i.d., week 12
[19] = 24 weeks results, continued 50 mg b.i.d., week 16
[20] = 24 weeks results, continued 50 mg b.i.d., week 20
[21] = 24 weeks results, continued 50 mg b.i.d., week 24
[22] = 24 weeks results, continued 50 mg q.d., week 1
[23] = 24 weeks results, continued 50 mg q.d., week 2
[24] = 24 weeks results, continued 50 mg q.d., week 4
[25] = 24 weeks results, continued 50 mg q.d., week 8

O=C(Nc1nc2cccc(-c3ccc(CN4CCS(=O)(=O)CC4)cc3)n2n1)C1CC1 [Compound 1, cyclopropanecarboxylic acid {5-[4-(1,1-dioxo-thiomorpholin-4-ylmethyl)-phenyl]-[1,2,4]triazolo[1,5-a]pyridin-2-yl}-amide]
Study 1 - ALT Mean CFB [1]: 1 IU/L
Study 1 - ALT Mean percentage CFB [1]: 9%
Study 1 - ALT Mean CFB [2]: 1 IU/L
Study 1 - ALT Mean percentage CFB [2]: 10%
Study 1 - ALT Mean CFB [3]: 1 IU/L
Study 1 - ALT Mean percentage CFB [3]: 20%
Study 1 - ALT Mean CFB [4]: 1 IU/L
Study 1 - ALT Mean percentage CFB [4]: 25%
Study 1 - ALT Mean CFB [5]: 2 IU/L
Study 1 - ALT Mean percentage CFB [5]: 26%
Study 1 - ALT Mean CFB [6]: 0.8 IU/L
Study 1 - ALT Mean percentage CFB [6]: 8.9%
Study 1 - ALT Mean CFB [7]: −0.4 IU/L
Study 1 - ALT Mean percentage CFB [7]: 5.4%
Study 1 - ALT Mean CFB [8]: 0.3 IU/L
Study 1 - ALT Mean percentage CFB [8]: 10.9%
Study 1 - ALT Mean CFB [9]: 1.8 IU/L
Study 1 - ALT Mean percentage CFB [9]: 18.4%
Study 1 - ALT Mean CFB [10]: 2.5 IU/L
Study 1 - ALT Mean percentage CFB [10]: 28.6%
Study 1 - ALT Mean CFB [11]: 1.2 IU/L
Study 1 - ALT Mean percentage CFB [11]: 21.4%
Study 1 - ALT Mean CFB [12]: 0.0 IU/L
Study 1 - ALT Mean percentage CFB [12]: 15.2%
Study 1 - ALT Mean CFB [13]: 1.4 IU/L
Study 1 - ALT Mean percentage CFB [13]: 25.1%
Study 1 - ALT Mean CFB [14]: 0.6 IU/L
Study 1 - ALT Mean percentage CFB [14]: 8.5%
Study 1 - ALT Mean CFB [15]: 1.2 IU/L
Study 1 - ALT Mean percentage CFB [15]: 13.0%
Study 1 - ALT Mean CFB [16]: 2.5 IU/L
Study 1 - ALT Mean percentage CFB [16]: 24.2%
Study 1 - ALT Mean CFB [17]: 2.2 IU/L
Study 1 - ALT Mean percentage CFB [17]: 20.3%
Study 1 - ALT Mean CFB [18]: 2.1 IU/L
Study 1 - ALT Mean percentage CFB [18]: 27.6%
Study 1 - ALT Mean CFB [19]: 1.6 IU/L
Study 1 - ALT Mean percentage CFB [19]: 20.1%
Study 1 - ALT Mean CFB [20]: 3.0 IU/L
Study 1 - ALT Mean percentage CFB [20]: 26.2%
Study 1 - ALT Mean CFB [21]: 1.8 IU/L
Study 1 - ALT Mean percentage CFB [21]: 18.7%
Study 1 - ALT Mean CFB [22]: 0.9 IU/L
Study 1 - ALT Mean percentage CFB [22]: 6.6%
Study 1 - ALT Mean CFB [23]: −0.7 IU/L
Study 1 - ALT Mean percentage CFB [23]: 1.4%
Study 1 - ALT Mean CFB [24]: −0.6 IU/L
Study 1 - ALT Mean percentage CFB [24]: 4.8%
Study 1 - ALT Mean CFB [25]: 0.4 IU/L
Study 1 - ALT Mean percentage CFB [25]: 10.6%
